Experimental data reported in the NIST ThermoML archive (doi:10.1021/je1005483).
Numbers after ± are expanded uncertainties.

Key:
[1] = xn = mol fraction of the nth substance listed; details: 101.3 kPa, Liquid; for speed of sound: 298.15 K
[2] = molar heat capacity at constant pressure; xn = mol fraction of the nth substance listed; details: 298.15 K, 101.3 kPa, Liquid, Flow calorimetry

SMILES: CC1COC(=O)O1 (configuration not stated) [4-methyl-1,3-dioxolan-2-one] + CC#N
- speed of sound ([1]; x1 = 0.0502): 1287.5 ± 2.7 m/s
- speed of sound ([1]; x1 = 0.1022): 1296.4 ± 2.7 m/s
- speed of sound ([1]; x1 = 0.1512): 1305.1 ± 2.7 m/s
- speed of sound ([1]; x1 = 0.2006): 1313.9 ± 2.7 m/s
- speed of sound ([1]; x1 = 0.3031): 1331 ± 2.7 m/s
- speed of sound ([1]; x1 = 0.3051): 1331.6 ± 2.7 m/s
- speed of sound ([1]; x1 = 0.4046): 1351.6 ± 2.8 m/s
- speed of sound ([1]; x1 = 0.5067): 1369 ± 2.8 m/s
- speed of sound ([1]; x1 = 0.6088): 1386.6 ± 2.8 m/s
- speed of sound ([1]; x1 = 0.7035): 1399.3 ± 2.9 m/s
- speed of sound ([1]; x1 = 0.7037): 1399.4 ± 2.9 m/s
- speed of sound ([1]; x1 = 0.7986): 1415.1 ± 2.9 m/s
- speed of sound ([1]; x1 = 0.856): 1422.3 ± 2.9 m/s
- speed of sound ([1]; x1 = 0.9052): 1427.8 ± 2.9 m/s
- speed of sound ([1]; x1 = 0.9518): 1434.5 ± 2.9 m/s
- speed of sound ([1]; x1 = 0.9766): 1438 ± 2.9 m/s
- speed of sound ([1]; x1 = 1): 1443 ± 2.9 m/s
- mass density ([1]; 308.15 K, x1 = 0.00899): 772.153 ± 0.37 kg/m3
- mass density ([1]; 308.15 K, x1 = 0.01974): 779.714 ± 0.36 kg/m3
- mass density ([1]; 308.15 K, x1 = 0.02827): 785.631 ± 0.35 kg/m3
- mass density ([1]; 308.15 K, x1 = 0.03912): 793.054 ± 0.34 kg/m3
- mass density ([1]; 308.15 K, x1 = 0.04976): 800.23 ± 0.34 kg/m3
- mass density ([1]; 308.15 K, x1 = 0.05955): 806.732 ± 0.33 kg/m3
- mass density ([1]; 308.15 K, x1 = 0.06835): 812.468 ± 0.33 kg/m3
- mass density ([1]; 308.15 K, x1 = 0.08237): 821.557 ± 0.32 kg/m3
- mass density ([1]; 308.15 K, x1 = 0.09065): 826.854 ± 0.31 kg/m3
- mass density ([1]; 308.15 K, x1 = 0.09974): 832.541 ± 0.31 kg/m3
- mass density ([1]; 308.15 K, x1 = 0.1473): 861.545 ± 0.28 kg/m3
- mass density ([1]; 308.15 K, x1 = 0.2018): 892.585 ± 0.26 kg/m3
- mass density ([1]; 308.15 K, x1 = 0.2509): 919.09 ± 0.25 kg/m3
- mass density ([1]; 308.15 K, x1 = 0.2983): 943.362 ± 0.24 kg/m3
- mass density ([1]; 308.15 K, x1 = 0.4008): 991.468 ± 0.25 kg/m3
- mass density ([1]; 308.15 K, x1 = 0.4905): 1029.07 ± 0.3 kg/m3
- mass density ([1]; 308.15 K, x1 = 0.5979): 1069.65 ± 0.28 kg/m3
- mass density ([1]; 308.15 K, x1 = 0.6902): 1101.28 ± 0.28 kg/m3
- mass density ([1]; 308.15 K, x1 = 0.7903): 1132.31 ± 0.29 kg/m3
- mass density ([1]; 308.15 K, x1 = 0.901): 1163.56 ± 0.31 kg/m3
- mass density ([1]; 308.15 K, x1 = 0.9121): 1166.51 ± 0.32 kg/m3
- mass density ([1]; 308.15 K, x1 = 0.9218): 1169.02 ± 0.32 kg/m3
- mass density ([1]; 308.15 K, x1 = 0.9302): 1171.25 ± 0.33 kg/m3
- mass density ([1]; 308.15 K, x1 = 0.9411): 1174.08 ± 0.32 kg/m3
- mass density ([1]; 308.15 K, x1 = 0.9504): 1176.45 ± 0.33 kg/m3
- mass density ([1]; 308.15 K, x1 = 0.9609): 1179.12 ± 0.33 kg/m3
- mass density ([1]; 308.15 K, x1 = 0.9715): 1181.77 ± 0.34 kg/m3
- mass density ([1]; 308.15 K, x1 = 0.9815): 1184.24 ± 0.34 kg/m3
- mass density ([1]; 308.15 K, x1 = 1): 1188.73 ± 0.34 kg/m3
- mass density ([1]; 318.15 K, x1 = 0.00987): 762.8 ± 0.38 kg/m3
- mass density ([1]; 318.15 K, x1 = 0.02015): 770.008 ± 0.37 kg/m3
- mass density ([1]; 318.15 K, x1 = 0.04049): 783.973 ± 0.35 kg/m3
- mass density ([1]; 318.15 K, x1 = 0.04999): 790.403 ± 0.35 kg/m3
- mass density ([1]; 318.15 K, x1 = 0.05968): 796.854 ± 0.34 kg/m3
- mass density ([1]; 318.15 K, x1 = 0.06983): 803.478 ± 0.33 kg/m3
- mass density ([1]; 318.15 K, x1 = 0.07649): 807.807 ± 0.33 kg/m3
- mass density ([1]; 318.15 K, x1 = 0.09048): 816.808 ± 0.32 kg/m3
- mass density ([1]; 318.15 K, x1 = 0.1015): 823.802 ± 0.31 kg/m3
- mass density ([1]; 318.15 K, x1 = 0.1527): 855.059 ± 0.28 kg/m3
- mass density ([1]; 318.15 K, x1 = 0.2011): 882.847 ± 0.27 kg/m3
- mass density ([1]; 318.15 K, x1 = 0.2502): 909.428 ± 0.25 kg/m3
- mass density ([1]; 318.15 K, x1 = 0.2971): 933.541 ± 0.26 kg/m3
- mass density ([1]; 318.15 K, x1 = 0.4037): 983.751 ± 0.28 kg/m3
- mass density ([1]; 318.15 K, x1 = 0.5036): 1025.46 ± 0.36 kg/m3
- mass density ([1]; 318.15 K, x1 = 0.6004): 1061.56 ± 0.45 kg/m3
- mass density ([1]; 318.15 K, x1 = 0.7016): 1095.76 ± 0.54 kg/m3
- mass density ([1]; 318.15 K, x1 = 0.7997): 1125.73 ± 0.65 kg/m3
- mass density ([1]; 318.15 K, x1 = 0.9005): 1153.94 ± 0.3 kg/m3
- mass density ([1]; 318.15 K, x1 = 0.9113): 1156.82 ± 0.77 kg/m3
- mass density ([1]; 318.15 K, x1 = 0.934): 1162.75 ± 0.78 kg/m3
- mass density ([1]; 318.15 K, x1 = 0.9408): 1164.5 ± 0.31 kg/m3
- mass density ([1]; 318.15 K, x1 = 0.9519): 1167.38 ± 0.81 kg/m3
- mass density ([1]; 318.15 K, x1 = 0.9608): 1169.62 ± 0.32 kg/m3
- mass density ([1]; 318.15 K, x1 = 0.9707): 1172.11 ± 0.83 kg/m3
- mass density ([1]; 318.15 K, x1 = 0.9815): 1174.79 ± 0.33 kg/m3
- mass density ([1]; 318.15 K, x1 = 0.9908): 1177.08 ± 0.86 kg/m3
- mass density ([1]; 318.15 K, x1 = 1): 1179.31 ± 0.33 kg/m3
- molar heat capacity at constant pressure ([2]; x1 = 0.02042): 93.86 ± 0.58 J/K/mol
- molar heat capacity at constant pressure ([2]; x1 = 0.04818): 95.91 ± 0.59 J/K/mol
- molar heat capacity at constant pressure ([2]; x1 = 0.08041): 98.29 ± 0.61 J/K/mol
- molar heat capacity at constant pressure ([2]; x1 = 0.09602): 99.45 ± 0.61 J/K/mol
- molar heat capacity at constant pressure ([2]; x1 = 0.1021): 99.9 ± 0.62 J/K/mol
- molar heat capacity at constant pressure ([2]; x1 = 0.1298): 101.95 ± 0.63 J/K/mol
- molar heat capacity at constant pressure ([2]; x1 = 0.1438): 103 ± 0.64 J/K/mol
- molar heat capacity at constant pressure ([2]; x1 = 0.1521): 103.61 ± 0.64 J/K/mol
- molar heat capacity at constant pressure ([2]; x1 = 0.1801): 105.69 ± 0.65 J/K/mol
- molar heat capacity at constant pressure ([2]; x1 = 0.193): 106.65 ± 0.66 J/K/mol
- molar heat capacity at constant pressure ([2]; x1 = 0.1988): 107.08 ± 0.66 J/K/mol
- molar heat capacity at constant pressure ([2]; x1 = 0.3006): 114.62 ± 0.71 J/K/mol
- molar heat capacity at constant pressure ([2]; x1 = 0.3994): 121.92 ± 0.75 J/K/mol
- molar heat capacity at constant pressure ([2]; x1 = 0.4507): 125.72 ± 0.78 J/K/mol
- molar heat capacity at constant pressure ([2]; x1 = 0.4508): 125.72 ± 0.78 J/K/mol
- molar heat capacity at constant pressure ([2]; x1 = 0.5997): 136.77 ± 0.84 J/K/mol
- molar heat capacity at constant pressure ([2]; x1 = 0.5999): 136.78 ± 0.84 J/K/mol
- molar heat capacity at constant pressure ([2]; x1 = 0.6973): 144.05 ± 0.89 J/K/mol
- molar heat capacity at constant pressure ([2]; x1 = 0.7485): 147.88 ± 0.91 J/K/mol
- molar heat capacity at constant pressure ([2]; x1 = 0.7494): 147.94 ± 0.91 J/K/mol
- molar heat capacity at constant pressure ([2]; x1 = 0.8995): 159.26 ± 0.98 J/K/mol
- molar heat capacity at constant pressure ([2]; x1 = 0.9004): 159.33 ± 0.98 J/K/mol
- molar heat capacity at constant pressure ([2]; x1 = 1): 166.98 ± 1 J/K/mol
